Earlier results, collected in publication PMC3019532 (Current radiopharmaceuticals, 2010).

Columns and labels:
[1] = test system: CA20948 rat pancreatic tumor cells; details: 1 h of incubation with 1 × 10^5 CA20948 cells; cited from earlier work
[2] = rat, in vivo; cited from earlier work

Question: With “[^177Lu-DOTA^0,Tyr^3]octreotate [[^177Lu]DOTA-TATE]” as the substance, how does the dose internalized [1] read?
Answer: about 0.03%

Question: What about the “metabolism, form present in urine” value [2] of the same substance?
Answer: predominantly intact form
